Measured values taken from paper PMC9250534, “Synthesis and direct assay of large macrocycle diversities by combinatorial late-stage modification at picomole scale” (Nature Communications, 2022).

Target: MDM2 (Homo sapiens, UniProt Q00987)
Experiment: MDM2 binding screen of Libraries 3 and 4: displacement of fluorescent probe F-M8 at 750 nM macrocycle
Conditions: Panel b, Library 3: 63 scaffolds combinatorially acylated with 15 carboxylic acids at 30 picomole scale; displacement of fluorescent peptide probe; macrocycle 750 nM
Method in brief: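 Cyclic peptide scaffolds were acylated in DMSO with carboxylic acids (20 equiv.), HBTU and DABCO for 6 h at room temperature. Reactions were quenched overnight in 100 mM Tris-Cl pH 7.4, 0.01% Tween20. The fluorescein conjugate was also competed with nutlin-3a.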

MDM2, sequence (Q00987 whole entry): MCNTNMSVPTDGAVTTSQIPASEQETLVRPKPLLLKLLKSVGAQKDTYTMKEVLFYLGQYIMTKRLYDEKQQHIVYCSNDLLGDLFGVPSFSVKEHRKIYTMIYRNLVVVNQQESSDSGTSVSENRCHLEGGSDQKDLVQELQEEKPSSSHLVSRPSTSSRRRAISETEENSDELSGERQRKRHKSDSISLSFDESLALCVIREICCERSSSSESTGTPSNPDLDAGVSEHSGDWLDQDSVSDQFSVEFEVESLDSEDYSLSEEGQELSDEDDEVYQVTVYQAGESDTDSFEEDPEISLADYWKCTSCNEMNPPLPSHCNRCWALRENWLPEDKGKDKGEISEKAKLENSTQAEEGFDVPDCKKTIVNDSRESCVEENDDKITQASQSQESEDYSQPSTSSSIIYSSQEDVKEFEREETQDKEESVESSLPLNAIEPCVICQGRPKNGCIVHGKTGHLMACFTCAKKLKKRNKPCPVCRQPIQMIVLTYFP

SMILES | fraction of fluorescent probe displaced
O=C1CCSSCCNC(=O)[C@@H](Cc2c[nH]c3ccccc23)NC(=O)CN(CCNC(=O)C2COc3ccccc3O2)C(=O)C2(CC2)CN1 (stereo partly drawn) [X-Amcp-N-Aeg-D-Trp + Acid 115] | 0.048
O=C1CCSSCCNC(=O)[C@H](Cc2ccc3ccccc3c2)NC(=O)[C@@H](CNC(=O)c2cccc(Oc3ccccc3)c2)NC(=O)C2(CC2)CN1 [X-Amcp-D-Dap-2-Nal + Acid 111] | -0.00533
Cn1cc(C[C@@H]2NC(=O)CN(CCNC(=O)c3ccc(Cl)cc3)C(=O)C3(CC3)CNC(=O)CCSSCCNC2=O)c2ccccc21 [X-Amcp-N-Aeg-Me-Trp + Acid 25] | -0.012
O=C(/C=C/c1ccc2ccccc2c1)NC[C@@H]1NC(=O)C2(CC2)CNC(=O)CCSSCCNC(=O)[C@H](Cc2c[nH]c3cc(Cl)ccc23)NC1=O [X-Amcp-Dap-Cl-Trp + Acid 112] | 0.008
O=C(/C=C/c1ccc2ccccc2c1)NC[C@H]1NC(=O)C2(CC2)CNC(=O)CCSSCCNC(=O)[C@H](Cc2cccc3ccccc23)NC1=O [X-Amcp-D-Dap-1-NaI + Acid 112] | -0.00533
CN1C(=O)[C@@H](CNC(=O)c2cccc(Oc3ccccc3)c2)NC(=O)C2(CC2)CNC(=O)CCSSCCNC(=O)[C@@H]1Cc1c[nH]c2ccccc12 [X-Amcp-D-Dap-NMe-Trp + Acid 111] | 0.00133
O=C1CCSSCCNC(=O)[C@H](Cc2cccc3ccccc23)NC(=O)CN(CCNC(=O)c2ccc3ccccc3c2)C(=O)C2(CC2)CN1 [X-Amcp-N-Aeg-1-NaI + Acid 107] | 0.011
CN1C(=O)[C@@H](CNC(=O)c2ccc(Cl)s2)NC(=O)C2(CC2)CNC(=O)CCSSCCNC(=O)[C@@H]1Cc1c[nH]c2ccccc12 [X-Amcp-D-Dap-NMe-Trp + Acid 14] | 0.008
Cn1cc(CC2NC(=O)C(CNC(=O)C=Cc3ccc(OCc4ccccc4)cc3)NC(=O)C3CN(CCO3)C(=O)CCSSCCNC2=O)c2ccccc21 [X-Cop-D-Dap-Me-Trp + Acid 110] | 0.028
CN1C(=O)[C@@H](CNC(=O)c2ccc(Cl)s2)NC(=O)[C@H]2CCCN(C2)C(=O)CCSSCCNC(=O)[C@@H]1Cc1c[nH]c2ccccc12 [X-Nip-D-Dap-NMe-Trp + Acid 14] | 0.00133
CC(Oc1cccc(Cl)c1)C(=O)NCCN1CC(=O)NC(Cc2cccc3ccccc23)C(=O)NCCSSCCC(=O)N2CCCC(C2)C1=O (mixture of isomers) [X-Nip-N-Aeg-1-NaI + Acid 113] | -0.00533
O=C(/C=C/c1ccc2ccccc2c1)NC[C@@H]1NC(=O)[C@@H]2CN(CCO2)C(=O)CCSSCCNC(=O)[C@H](Cc2c[nH]c3ccccc23)NC1=O [X-Cop-Dap-Trp + Acid 112] | 0.168
Cn1cc(C[C@@H]2NC(=O)[C@H](CNC(=O)c3ccc(Cl)cc3)NC(=O)[C@@H]3CN(CCO3)C(=O)CCSSCCNC2=O)c2ccccc21 [X-Cop-Dap-Me-Trp + Acid 25] | 0.015
O=C(/C=C/c1ccc2ccccc2c1)NC[C@@H]1NC(=O)C2(CC2)CNC(=O)CCSSCCNC(=O)[C@H](Cc2ccc3ccccc3c2)NC1=O [X-Amcp-Dap-2-Nal + Acid 112] | 0.015
O=C(/C=C/c1ccc(OCc2ccccc2)cc1)NCCN1CC(=O)N[C@@H](Cc2cccc3ccccc23)C(=O)NCCSSCCC(=O)N2CCC[C@@H](C2)C1=O [X-Nip-N-Aeg-1-NaI + Acid 110] | -0.00533
O=C1CN(CCNC(=O)c2ccc3ccccc3c2)C(=O)[C@@H]2CN(CCO2)C(=O)CCSSCCNC(=O)[C@H](Cc2c[nH]c3ccccc23)N1 [X-Cop-N-Aeg-Trp + Acid 107] | 0.00455
O=C(/C=C/c1ccc(Cl)cc1)NC[C@@H]1NC(=O)C2(CC2)CNC(=O)CCSSCCNC(=O)[C@H](Cc2c[nH]c3ccccc23)NC1=O [X-Amcp-Dap-Trp + Acid 108] | 0.068
O=C(/C=C/c1ccc2ccccc2c1)NC[C@H]1NC(=O)C2(CC2)CNC(=O)CCSSCCNC(=O)[C@H](Cc2c[nH]c3ccccc23)NC1=O [X-Amcp-D-Dap-Trp + Acid 112] | -0.00533

SMILES | fraction of fluorescent probe displaced
O=C(/C=C/c1ccc(Cl)cc1)NC[C@H]1NC(=O)C2(CC2)CNC(=O)CCSSCCNC(=O)[C@H](Cc2c[nH]c3cc(Cl)ccc23)NC1=O [X-Amcp-D-Dap-Cl-Trp + Acid 108] | -0.025
O=C(/C=C/c1ccc(OCc2ccccc2)cc1)NC[C@@H]1NC(=O)[C@@H]2CN(CCO2)C(=O)CCSSCCNC(=O)[C@H](Cc2c[nH]c3ccccc23)NC1=O [X-Cop-Dap-Trp + Acid 110] | -0.012
O=C(/C=C/c1ccncc1)NC[C@@H]1NC(=O)C2(CC2)CNC(=O)CCSSCCNC(=O)[C@H](Cc2ccc3ccccc3c2)NC1=O [X-Amcp-Dap-2-Nal + Acid 106] | -0.002
O=C(/C=C/c1ccc(OCc2ccccc2)cc1)NC[C@@H]1NC(=O)[C@H]2CCCN(C2)C(=O)CCSSCCNC(=O)[C@H](Cc2c[nH]c3ccccc23)NC1=O [X-Nip-Dap-Trp + Acid 110] | 0.015
CC(Oc1cccc(Cl)c1)C(=O)NCCN1CC(=O)NC(Cc2c[nH]c3cc(Cl)ccc23)C(=O)NCCSSCCC(=O)NCC2(CC2)C1=O (mixture of isomers) [X-Amcp-N-Aeg-Cl-Trp + Acid 113] | -0.019
CC(Oc1cccc(Cl)c1)C(=O)NCCN1CC(=O)N[C@@H](Cc2c[nH]c3ccccc23)C(=O)NCCSSCCC(=O)NCC2(CC2)C1=O (stereo partly shown) [X-Amcp-N-Aeg-Trp + Acid 113] | 0.035
Cn1cc(C[C@@H]2NC(=O)[C@@H](CNC(=O)c3ccc4ccccc4c3)NC(=O)[C@@H]3CN(CCO3)C(=O)CCSSCCNC2=O)c2ccccc21 [X-Cop-D-Dap-Me-Trp + Acid 107] | 0.050
O=C(NCC1NC(=O)C2CN(CCO2)C(=O)CCSSCCNC(=O)C(Cc2c[nH]c3ccccc23)NC1=O)c1ccc(Cl)cc1 (stereo not drawn) [X-Cop-Dap-Trp + Acid 25] | 0.041
Cn1cc(C[C@@H]2NC(=O)[C@@H](CNC(=O)c3ccc(Cl)cc3)NC(=O)[C@H]3CCCN(C3)C(=O)CCSSCCNC2=O)c2ccccc21 [X-Nip-D-Dap-Me-Trp + Acid 25] | -0.00533
O=C(NCC1NC(=O)C2CN(CCO2)C(=O)CCSSCCNC(=O)C(Cc2ccc3ccccc3c2)NC1=O)c1cccc(Oc2ccccc2)c1 (stereo not drawn) [X-Cop-Dap-2-Nal + Acid 111] | 0.008
O=C(CCS(=O)(=O)c1ccccc1)NC[C@@H]1NC(=O)C2(CC2)CNC(=O)CCSSCCNC(=O)[C@H](Cc2cccc3ccccc23)NC1=O [X-Amcp-Dap-1-NaI + Acid 114] | -0.00533
O=C(CCS(=O)(=O)c1ccccc1)NCCN1CC(=O)N[C@@H](Cc2ccc3ccccc3c2)C(=O)NCCSSCCC(=O)NCC2(CC2)C1=O [X-Amcp-N-Aeg-2-Nal + Acid 114] | 0.028
O=C(/C=C/c1ccc(OCc2ccccc2)cc1)NC[C@@H]1NC(=O)C2(CC2)CNC(=O)CCSSCCNC(=O)[C@H](Cc2cccc3ccccc23)NC1=O [X-Amcp-Dap-1-NaI + Acid 110] | 0.00133
CN1C(=O)CN(CCNC(=O)/C=C/c2ccc(Cl)cc2)C(=O)[C@H]2CCCN(C2)C(=O)CCSSCCNC(=O)[C@@H]1Cc1c[nH]c2ccccc12 [X-Nip-N-Aeg-NMe-Trp + Acid 108] | 0.028
Cn1cc(C[C@@H]2NC(=O)[C@H](CNC(=O)/C=C/c3ccc(Cl)cc3)NC(=O)C3(CC3)CNC(=O)CCSSCCNC2=O)c2ccccc21 [X-Amcp-Dap-Me-Trp + Acid 108] | 0.008
O=C(CCS(=O)(=O)c1ccccc1)NC[C@H]1NC(=O)C2(CC2)CNC(=O)CCSSCCNC(=O)[C@H](Cc2cccc3ccccc23)NC1=O [X-Amcp-D-Dap-1-NaI + Acid 114] | 0.028
CN1C(=O)[C@@H](CNC(=O)/C=C/c2ccncc2)NC(=O)C2(CC2)CNC(=O)CCSSCCNC(=O)[C@@H]1Cc1c[nH]c2ccccc12 [X-Amcp-D-Dap-NMe-Trp + Acid 106] | -0.015

Same assay, conditions: Panel c, Library 4: best nine scaffolds and 15 additional carboxylic acids; displacement of fluorescent probe

SMILES | fraction of fluorescent probe displaced
Cn1cc(C[C@@H]2NC(=O)[C@H](CNC(=O)/C=C/c3cccc(Cl)c3)NC(=O)[C@H]3CCCN(C3)C(=O)CCSSCCNC2=O)c2ccccc21 [X-Nip-Dap-Me-Trp + Acid 121] | 0.118
O=C(/C=C/c1cccc(Cl)c1)NC[C@@H]1NC(=O)[C@H]2CCCN(C2)C(=O)CCSSCCNC(=O)[C@H](Cc2cccc3ccccc23)NC1=O [X-Nip-Dap-1-NaI + Acid 121] | -0.00464
O=C(/C=C/c1cccc(C(F)(F)F)c1)NC[C@@H]1NC(=O)C2(CC2)CNC(=O)CCSSCCNC(=O)[C@H](Cc2c[nH]c3ccccc23)NC1=O [X-Amcp-Dap-Trp + Acid 122] | 0.052
CCOc1ccc(/C=C/C(=O)O)cc1 [Acid 117] | 0.028
O=C(NC[C@@H]1NC(=O)[C@H]2CCCN(C2)C(=O)CCSSCCNC(=O)[C@H](Cc2ccc3ccccc3c2)NC1=O)c1cnc2ccccc2n1 [X-Nip-Dap-2-Nal + Acid 130] | 0.0035
O=C1CCSSCCNC(=O)[C@H](Cc2c[nH]c3ccccc23)NC(=O)[C@H](CNC(=O)c2cnc3ccccc3n2)NC(=O)C2(CC2)CN1 [X-Amcp-Dap-Trp + Acid 130] | 0.0035
CCCOc1ccc(/C=C/C(=O)NC[C@@H]2NC(=O)C3(CC3)CNC(=O)CCSSCCNC(=O)[C@H](Cc3c[nH]c4ccccc34)NC2=O)cc1 [X-Amcp-Dap-Trp + Acid 118] | 0.069
O=C(/C=C/c1ccc(Cl)c(Cl)c1)NC[C@@H]1NC(=O)[C@@H]2CN(CCO2)C(=O)CCSSCCNC(=O)[C@H](Cc2c[nH]c3cc(Cl)ccc23)NC1=O [X-Cop-Dap-Cl-Trp + Acid 119] | 0.126
